{"source": "patent US8101576B2", "about": "“Compounds and their effects on feeding behaviour” (priority 2006, dated 2012)", "experiment": "Inhibition of food intake, subcutaneous injection to fasted rats", "format": "in vivo, Wistar rats", "description": "Animals: All animal procedures were approved by the British Home Office Animals (Scientific Procedures) Act 1986 (Project License number 70/5516).\nStudy protocol: C57BL/6 mice (20-35 g) were injected with the peptide under investigation following a 20-hour fast. Wistar rats were injected following a 24-hour fast. […] A pre-weighed quantity of chow was presented immediately after injection.", "note": "Square brackets hold non-standard residues; d marks the D form. Ends that are not written are not given here. * marks the point of attachment. Arachidoyl = CCCCCCCCCCCCCCCCCCCC(=O)*; Palmitoyl = CCCCCCCCCCCCCCCC(=O)*; Myristoyl = CCCCCCCCCCCCCC(=O)*", "data": [{"substance": "D-His Ala Asp Gly Thr Phe Thr Ser Asp Tyr Ser Lys Tyr Leu Glu Gln Glu Ile Val Lys Tyr Phe Ile Gln Trp Leu Lys Asn Gly Gly Pro Ser Lys Asn Asn Ile Ala Lys ([dH]ADGTFTSDYSKYLEQEIVKYFIQWLKNGGPSKNNIAK) [PEPTIDE NO: 202]", "values": [{"measurement": "Mean cumulative food intake in comparison to saline control", "setting": "5 nmoles/kg, over 48 hours", "value": "potent and long acting suppression of food intake"}, {"measurement": "food intake in comparison to control group treated with native oxyntomodulin", "setting": "5 nmoles/kg, over 48 hours", "value": "lower than in the control group treated with native oxyntomodulin"}]}, {"substance": "D-His Ala Asp Gly Thr Phe Thr Ser Asp Tyr Ser Lys Tyr Leu Glu Gln Glu Ile Val Lys Tyr Phe Leu Gln Trp Leu Lys Asn Ala Gly Pro Ser Lys Asn Asn Ile Ala ([dH]ADGTFTSDYSKYLEQEIVKYFLQWLKNAGPSKNNIA) [PEPTIDE NO: 184]", "values": [{"measurement": "Mean cumulative food intake in comparison to saline control", "setting": "3 nmoles/kg, over 24 hours", "value": "potent and long acting suppression of food intake"}, {"measurement": "food intake in comparison to control group treated with native oxyntomodulin", "setting": "3 nmoles/kg, over 24 hours", "value": "lower than in the control group treated with native oxyntomodulin"}]}, {"substance": "D-His Ala Asp Gly Thr Phe Thr Ser Asp Tyr Ser Lys Tyr Leu Glu Gln Glu Leu Val Lys Tyr Phe Ile Gln Trp Leu Lys Asn Ala Gly Pro Ser Lys Asn Asn Ile Ala ([dH]ADGTFTSDYSKYLEQELVKYFIQWLKNAGPSKNNIA) [PEPTIDE NO: 178]", "values": [{"measurement": "Mean cumulative food intake in comparison to saline control", "setting": "10 nmoles/kg, over 24 hours", "value": "potent and long acting suppression of food intake"}, {"measurement": "food intake in comparison to control group treated with native oxyntomodulin", "setting": "10 nmoles/kg, over 24 hours", "value": "lower than in the control group treated with native oxyntomodulin"}]}, {"substance": "D-His Ala Asp Gly Thr Phe Thr Ser Asp Tyr Ser Lys Tyr Leu Glu Gln Glu Leu Val Lys Tyr Phe Ile Gln Trp Leu Lys Asn Gly Gly Pro Ser Lys Asn Asn Ile Ala Lys ([dH]ADGTFTSDYSKYLEQELVKYFIQWLKNGGPSKNNIAK) [PEPTIDE NO: 205]", "values": [{"measurement": "Mean cumulative food intake in comparison to saline control", "setting": "5 nmoles/kg, over 32 hours", "value": "potent and long acting suppression of food intake"}, {"measurement": "food intake in comparison to control group treated with native oxyntomodulin", "setting": "5 nmoles/kg, over 32 hours", "value": "lower than in the control group treated with native oxyntomodulin"}]}, {"substance": "D-His Ala Asp Gly Thr Phe Thr Ser Asp Tyr Ser Lys Tyr Leu Glu Gln Glu Leu Val Lys Tyr Phe Leu Gln Trp Leu Lys Asn Ala Gly Pro Ser Lys Asn Asn Ile Ala ([dH]ADGTFTSDYSKYLEQELVKYFLQWLKNAGPSKNNIA) [PEPTIDE NO: 172]", "values": [{"measurement": "Mean cumulative food intake in comparison to saline control", "setting": "3 nmoles/kg, over 24 hours", "value": "potent and long acting suppression of food intake"}, {"measurement": "food intake in comparison to control group treated with native oxyntomodulin", "setting": "3 nmoles/kg, over 24 hours", "value": "lower than in the control group treated with native oxyntomodulin"}]}, {"substance": "D-His Ala Asp Gly Thr Phe Thr Ser Asp Tyr Ser Lys Tyr Leu Glu Glu Glu Ile Val Lys Tyr Phe Ile Gln Trp Leu Lys Asn Gly Gly Pro Ser Lys Asn Asn Ile Ala ([dH]ADGTFTSDYSKYLEEEIVKYFIQWLKNGGPSKNNIA) [PEPTIDE NO: 167]", "values": [{"measurement": "food intake suppression continues for", "setting": "5 nmoles/kg, 32 hours observed", "value": "≥ 32", "unit": "h"}, {"measurement": "Mean cumulative food intake in comparison to saline control", "setting": "5 nmoles/kg, over 32 hours", "value": "potent and long acting suppression of food intake"}, {"measurement": "food intake in comparison to control group treated with native oxyntomodulin", "setting": "5 nmoles/kg, over 32 hours", "value": "lower than in the control group treated with native oxyntomodulin"}]}, {"substance": "D-His Ala Asp Gly Thr Phe Thr Ser Asp Tyr Ser Lys Tyr Leu Glu Glu Glu Ile Val Lys Tyr Phe Ile Gln Trp Leu Lys Asn Gly Gly Pro Ser Lys Asn Asn Ile Ala Lys ([dH]ADGTFTSDYSKYLEEEIVKYFIQWLKNGGPSKNNIAK) [PEPTIDE NO: 201]", "values": [{"measurement": "Mean cumulative food intake in comparison to saline control", "setting": "5 nmoles/kg, over 48 hours", "value": "potent and long acting suppression of food intake"}, {"measurement": "food intake in comparison to control group treated with native oxyntomodulin", "setting": "5 nmoles/kg, over 48 hours", "value": "lower than in the control group treated with native oxyntomodulin"}]}, {"substance": "D-His Ala Asp Gly Thr Phe Thr Ser Asp Tyr Ser Lys Tyr Leu Glu Glu Glu Ile Val Lys Tyr Phe Ile Gln Trp Leu Met Asn Thr Lys Arg Asn Lys Asn Asn Ile Ala Lys ([dH]ADGTFTSDYSKYLEEEIVKYFIQWLMNTKRNKNNIAK) [PEPTIDE NO: 203]", "values": [{"measurement": "food intake suppression continues for", "setting": "100 nmoles/kg, 24 hours observed", "value": "≥ 24", "unit": "h"}, {"measurement": "Mean cumulative food intake in comparison to saline control", "setting": "100 nmoles/kg, over 24 hours", "value": "potent and long acting suppression of food intake"}, {"measurement": "food intake in comparison to control group treated with native oxyntomodulin", "setting": "100 nmoles/kg, over 24 hours", "value": "lower than in the control group treated with native oxyntomodulin"}]}, {"substance": "D-His Ala Asp Gly Thr Phe Thr Ser Asp Tyr Ser Lys Tyr Leu Glu Glu Glu Ile Val Lys Tyr Phe Ile Glu Trp Leu Lys Asn Gly Gly Pro Ser Lys Asn Asn Ile Ala ([dH]ADGTFTSDYSKYLEEEIVKYFIEWLKNGGPSKNNIA) [PEPTIDE NO: 164]", "values": [{"measurement": "food intake suppression continues for", "setting": "4 nmoles/kg, 48 hours observed", "value": "≥ 48", "unit": "h"}, {"measurement": "Mean cumulative food intake in comparison to saline control", "setting": "4 nmoles/kg, over 48 hours", "value": "potent and long acting suppression of food intake"}, {"measurement": "food intake in comparison to control group treated with native oxyntomodulin", "setting": "4 nmoles/kg, over 48 hours", "value": "lower than in the control group treated with native oxyntomodulin"}]}, {"substance": "D-His Ala Asp Gly Thr Phe Thr Ser Asp Tyr Ser Lys Tyr Leu Glu Glu Glu Leu Val Lys Tyr Phe Ile Gln Trp Leu Lys Asn Gly Gly Pro Ser Lys Asn Asn Ile Ala ([dH]ADGTFTSDYSKYLEEELVKYFIQWLKNGGPSKNNIA) [PEPTIDE NO: 155]", "values": [{"measurement": "food intake suppression continues for", "setting": "4 nmoles/kg, 32 hours observed", "value": "≥ 32", "unit": "h"}, {"measurement": "Mean cumulative food intake in comparison to saline control", "setting": "4 nmoles/kg, over 32 hours", "value": "potent and long acting suppression of food intake"}, {"measurement": "food intake in comparison to control group treated with native oxyntomodulin", "setting": "4 nmoles/kg, over 32 hours", "value": "lower than in the control group treated with native oxyntomodulin"}]}, {"substance": "D-His Ala Asp Gly Thr Phe Thr Ser Asp Tyr Ser Lys Tyr Leu Glu Glu Glu Leu Val Lys Tyr Phe Ile Gln Trp Leu Lys Asn Gly Gly Pro Ser Lys Asn Asn Ile Ala Ala Ala Lys-arachidoyl ([dH]ADGTFTSDYSKYLEEELVKYFIQWLKNGGPSKNNIAAAK(Arachidoyl)) [PEPTIDE NO: 209]", "values": [{"measurement": "food intake in comparison to control group treated with native oxyntomodulin", "setting": "80 mmoles/kg, over 48 hours", "value": "lower than in the control group treated with native oxyntomodulin"}, {"measurement": "Mean cumulative food intake in comparison to saline control", "setting": "over 48 hours", "value": "potent and long acting suppression of food intake"}]}, {"substance": "D-His Ala Asp Gly Thr Phe Thr Ser Asp Tyr Ser Lys Tyr Leu Glu Glu Glu Leu Val Lys Tyr Phe Ile Gln Trp Leu Lys Asn Gly Gly Pro Ser Lys Asn Asn Ile Ala Ala Ala Lys-myristoyl ([dH]ADGTFTSDYSKYLEEELVKYFIQWLKNGGPSKNNIAAAK(Myristoyl)) [PEPTIDE NO: 206]", "values": [{"measurement": "food intake in comparison to control group treated with native oxyntomodulin", "setting": "80 mmoles/kg, over 48 hours", "value": "lower than in the control group treated with native oxyntomodulin"}, {"measurement": "Mean cumulative food intake in comparison to saline control", "setting": "over 48 hours", "value": "potent and long acting suppression of food intake"}]}, {"substance": "D-His Ala Asp Gly Thr Phe Thr Ser Asp Tyr Ser Lys Tyr Leu Glu Glu Glu Leu Val Lys Tyr Phe Ile Gln Trp Leu Lys Asn Gly Gly Pro Ser Lys Asn Asn Ile Ala Ala Ala Lys-palmitoyl ([dH]ADGTFTSDYSKYLEEELVKYFIQWLKNGGPSKNNIAAAK(Palmitoyl)) [PEPTIDE NO: 207]", "values": [{"measurement": "food intake in comparison to control group treated with native oxyntomodulin", "setting": "80 mmoles/kg, over 48 hours", "value": "lower than in the control group treated with native oxyntomodulin"}, {"measurement": "Mean cumulative food intake in comparison to saline control", "setting": "over 48 hours", "value": "potent and long acting suppression of food intake"}]}]}
